# Assay results reported in patent US11155586B2, “Cystine knot scaffold platform” (Genentech, Inc., priority 2015, dated 2021).
# Positions of bridges follow the written chain, without caps; N, C: chain ends. Residues, ends and D or L forms follow the SMILES beside them.
# Key:
# [1] = biological target: hVEGF-A mutants (Y21A, K48A, Q89A, F17A/M81A); assay: SPR binding assay, hVEGF-A mutants; design: species or system human; kd: unit not given here
# Experimental: (§1) Depending on the format of the assay either a streptavidin sensor (SA) or a dextran-coated (CM5) sensor was utilized as described below.
# (§2) For use with the SA sensor, VEGF-A was first biotinylated (no more than 2 biotin/VEGF-A) by incubating the protein with EZ-link NHS-PEG4-Biotin (Pierce) in a 1:1.5 molar ratio respectively, in PBS for 2 hours on ice. Reaction was then quenched by addition of 10 molar excess of Glycine pH 8.0 and the sample was buffer exchanged into PBS using an Amicon 0.5 mL 3000 MWCO ultra-centrifugal filters (EMD Millipore). The biotinylation state of the protein was verified by LC-MS analysis. Biotinylated VEGF-A was then captured on the surface until a resonance unit (RU) signal of about ˜400. For immobilization of VEGF-A on CM5 sensor, the surface was first activated with a mixture of N-ethyl-N′-(3-dimethylaminopropyl)carbodiimide hydrochloride and N-hydroxysuccinimide (EDC/NHS) according to the supplier instructions. VEGF-A was then diluted into coupling buffer (0.1 M Acetate Buffer, pH 5.0) and injected until the signal reached about ˜400 RU followed by a wash with 1 M ethanolamine pH 8.0 to quench remaining activated sites.
# (§3) Following the capture step, a series of the peptide concentrations were prepared in HBS-EP buffer with matching DMSO concentrations to 0.1% and injected at a flow rate of […]. The resulting sensorgrams were then analyzed using a 1:1 binding model to obtain kinetic data and affinities using Scrubber 2.0 (BioLogic Software).
# The binding interface of VEGF_CKP9.54.90 on VEGF-A overlaps with that of the natural receptors and G6.31 antibody (FIGS. 7 and 8). […] However, K48A mutation enhanced the binding of VEGF_CKP9.54.90 by ˜2-3 fold, a behavior that is similar to that observed with the G6.31 antibody (Fuh et al. (2006) J. Biol. Chem. 281, 6625-6631).
# rat VEGF-A = biological target: T1, rat VEGF-A (Rattus norvegicus, UniProt P16612); assay: SPR binding assay
# T1 sequence (P16612 27-139 limits assumed): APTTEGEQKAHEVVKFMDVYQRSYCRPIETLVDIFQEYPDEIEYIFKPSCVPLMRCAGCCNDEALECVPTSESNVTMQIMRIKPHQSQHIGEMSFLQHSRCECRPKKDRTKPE
# Experimental: as §1, §2, §3
# VEGF human 165 = biological target: T2, VEGF human 165 (Homo sapiens, UniProt P15692); assay: SPR binding assay
# T2 sequence (P15692 27-191 isoform P15692-4): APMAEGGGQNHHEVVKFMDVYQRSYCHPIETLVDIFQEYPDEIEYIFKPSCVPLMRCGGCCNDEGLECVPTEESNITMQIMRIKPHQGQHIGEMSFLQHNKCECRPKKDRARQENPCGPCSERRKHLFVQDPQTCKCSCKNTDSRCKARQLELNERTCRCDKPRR
# Experimental: as §1, §2, §3
# VEGF mouse 164 = biological target: T3, VEGF mouse 164 (Mus musculus, UniProt Q00731); assay: SPR binding assay
# T3 sequence (Q00731 27-190 isoform Q00731-2): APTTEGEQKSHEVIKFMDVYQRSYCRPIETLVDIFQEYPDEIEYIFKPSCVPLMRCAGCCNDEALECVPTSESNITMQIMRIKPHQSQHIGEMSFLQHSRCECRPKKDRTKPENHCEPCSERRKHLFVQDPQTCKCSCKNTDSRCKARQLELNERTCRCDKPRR
# Experimental: as §1, §2, §3
# hVEGF(8-109) = biological target: T4, hVEGF(8-109) (Homo sapiens, UniProt P15692); assay: Spot phage ELISA; format: binding; details: Table 24
# T4 construct: hVEGF(8-109) or BSA were coated on 384-well MAXISORP™ immunoplates
# T4 sequence (P15692 214-315): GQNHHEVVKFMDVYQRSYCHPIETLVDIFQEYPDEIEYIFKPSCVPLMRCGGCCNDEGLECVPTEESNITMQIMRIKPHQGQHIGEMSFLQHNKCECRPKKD
# Method in brief: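 After four selection rounds, phage supernatants from single clones (1:3 in PBT) were added to wells coated with hVEGF(8-109) or BSA; binding detected with anti-M13-HRP and TMB. Positive clones had target signal more than 3 times BSA background.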
# VEGF-A and KDR = biological target: T5, VEGF-A and KDR (Homo sapiens, UniProt P15692); assay: Competition ELISA, KDR-VEGF interaction; format: binding
# T5 sequence (P15692 207-395): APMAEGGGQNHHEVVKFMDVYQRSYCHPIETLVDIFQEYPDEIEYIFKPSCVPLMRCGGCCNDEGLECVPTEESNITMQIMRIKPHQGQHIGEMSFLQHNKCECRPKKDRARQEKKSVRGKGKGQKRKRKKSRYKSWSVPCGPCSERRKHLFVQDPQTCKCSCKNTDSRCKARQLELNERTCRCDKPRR
# Experimental: Binding specificity of each peptide was established by competition ELISA. […] After blocking with block buffer (PBS with 0.5% BSA and 0.05% TWEEN®20) for 2 hours at room temperature, the receptor-Fc fusions or biotinylated receptors were serially diluted using assay buffer (PBS with 0.5% BSA and 0.05% TWEEN®20) and incubated for 1 hour at room temperature. […] Competition ELISA was conducted in an identical fashion as described above except after blocking, a mixture of serially diluted peptide containing a constant concentration of receptor-Fc fusion or biotinylated receptor (concentration of receptor was set to EC60) was added and incubated for 1 hour. All recombinant human proteins and antibodies were purchased from R &D Systems (Minneapolis, Minn.).
# hVEGF-A (8-109) = biological target: T6, hVEGF-A (8-109) (Homo sapiens, UniProt P15692); assay: SPR binding assay (BIACORE 3000, 37° C.)
# T6 sequence (P15692 34-135 isoform P15692-4): T4 sequence (P15692 214-315)
# Method in brief: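 VEGF-A, biotinylated and captured on streptavidin sensor or amine-coupled to CM5 at pH 5.0, to about 400 RU. Peptide concentration series in HBS-EP with 0.1% DMSO injected at […]; kinetics and affinities from 1:1 binding model fits.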
# trypsin = assay: Trypsin protease activity, peptide substrate cleavage assay; format: biochemical; details: FIG. 3
smiles,measurement,setting,value
"CC[C@H](C)[C@@H]1NC(=O)[C@H](CC(N)=O)NC(=O)[C@@H](NC(=O)CN)CSSC[C@@H](C(=O)N[C@H](C(=O)N[C@H]2CSSC[C@@H](C(=O)NCC(=O)O)NC(=O)[C@H](CO)NC(=O)[C@H](CCC(N)=O)NC(=O)[C@H](Cc3ccc(O)cc3)NC(=O)[C@H](Cc3ccc(O)cc3)NC(=O)[C@H](CCC(N)=O)NC2=O)C(C)C)NC(=O)CNC(=O)[C@H](C)NC(=O)[C@H](CC(C)C)NC(=O)[C@@H]2CSSC[C@H](NC(=O)CNC(=O)[C@H](Cc3c[nH]c4ccccc34)NC(=O)[C@H](Cc3ccccc3)NC(=O)[C@@H]3CCCN3C(=O)[C@H](CC(C)C)NC(=O)[C@H](CCSC)NC1=O)C(=O)N[C@@H](CCCCN)C(=O)N[C@@H](CCC(N)=O)C(=O)N[C@@H](CC(=O)O)C(=O)N[C@@H](CO)C(=O)N[C@@H](CC(=O)O)C(=O)N2 [VEGF_CKP9.54] (H-GCNIMLPFWGCKQDSDCLAGCVCQYYQSCG-OH; disulfide 2-21, 11-17, 23-29 (inferred); N-terminus and C-terminus assumed)",Kd,[1]; hVEGF-A mutant K48A,22 nM
same,ka,[1]; hVEGF-A mutant K48A,2.64 × 10^6
same,kd,[1]; hVEGF-A mutant K48A,0.0587
same,Kd,[1]; hVEGF-A mutant Q89A,1880 nM
same,ka,[1]; hVEGF-A mutant Q89A,3.37 × 10^5
same,kd,[1]; hVEGF-A mutant Q89A,0.7932
same,Kd,[1]; hVEGF-A mutant Y21A,317 nM
same,ka,[1]; hVEGF-A mutant Y21A,6.63 × 10^5
same,kd,[1]; hVEGF-A mutant Y21A,0.2101
same,Kd,rat VEGF-A,176 nM
same,ka,"rat VEGF-A; rat, Table 30",1.93 × 10^6
same,kd,"rat VEGF-A; rat, Table 30",2.96 × 10^−1
same,Kd,VEGF human 165,190 nM
same,ka,"VEGF human 165; human 165, Table 30",8.23 × 10^5
same,kd,"VEGF human 165; human 165, Table 30",1.49 × 10^−1
same,Kd,VEGF mouse 164,250 nM
same,ka,"VEGF mouse 164; mouse 164, Table 30",8.26 × 10^5
same,kd,"VEGF mouse 164; mouse 164, Table 30",2.07 × 10^−1
same,S/N (signal to noise ratio as compared to BSA control),hVEGF(8-109),28.4
same,ELISA,hVEGF(8-109); VEGF_CKP9 Loop1/Loop5 affinity-matured variants,2.1
same,IC50,VEGF-A and KDR,5.8 nM
same,Kd,"hVEGF-A (8-109); KD (nM), hVEGF-A WT",55 nM
same,Kd,"hVEGF-A (8-109); KD (nM), human 8-109, Table 30",176 nM
same,Kd,"hVEGF-A (8-109); KD, Table 37, surface plasmon resonance, VEGF-A",44 ± 6 nM
same,kd,"hVEGF-A (8-109); Table 37, surface plasmon resonance, VEGF-A",2.3
same,kd,hVEGF-A (8-109); hVEGF-A WT,0.2349
same,kd,"hVEGF-A (8-109); human 8-109, Table 30",2.18 × 10^−1
same,inhibition of trypsin protease activity,trypsin,do not inhibit
